Source: patent US4391816A, “N-(Naphthalenylthioxomethyl)aminoacid derivatives” (Ayerst, McKenna & Harrison Inc., priority 1981, dated 1983)

What was measured:
aldose reductase [1] = target: T1, aldose reductase (Bos taurus, UniProt P16116); test: in vitro aldose reductase inhibition (enzyme from bovine lens, modified Hayman and Kinoshita procedure); format: biochemical; conditions: for inhibition at 10 µM: 10^-5 molar, read-out: % Inhibition at Different Molar Concentrations (in vitro), 10^-5; for inhibition at 1 µM: 10^-6 molar, read-out: % Inhibition at Different Molar Concentrations (in vitro), 10^-6; for inhibition at 0.1 µM: 10^-7 molar, read-out: % Inhibition at Different Molar Concentrations (in vitro), 10^-7
T1 construct: preparation of the enzyme from bovine lens; from tissue; host or cells: bovine lens
Protocol: In the present case the procedure of Hayman and Kinoshita is modified in that the final chromatography step is omitted in the preparation of the enzyme from bovine lens.
The following results were obtained when the compounds of this invention were evaluated in the above in vitro test.

aldose reductase [2] = conditions: reported in the literature; cited from earlier work

Row | Compound | inhibition at 10 µM (aldose reductase [1]) [%] | inhibition at 1 µM (aldose reductase [1]) [%] | inhibition at 0.1 µM (aldose reductase [1]) [%] | inhibition of aldose reductase (in words) (aldose reductase [2])
1 | CC(C(=O)O)N(C)C(=S)c1cccc2c(Br)cccc12 (centres unmarked) [R^1=CH3, R^2=CH3, R^3=5-Br, n=O *] | 18 | – | – | –
2 | COc1ccc(C(=S)N(C)CC(=O)O)c2cccc(S(=O)(=O)N(C)C)c12 [N-[[4-methoxy-5-(dimethylaminosulfonyl)-1-naphthalenyl]thioxomethyl]-N-methylglycine] | 80 | 35 | 6 | –
3 | O=C1NC(=O)[C@@]2(CCOc3ccc(F)cc32)N1 [sorbinil, (S)-6-Fluoro-2,3-dihydrospiro(4H-1-benzopyran-4,4'-imidazolidine)-2',5'-dione] | – | – | – | aldose reductase inhibiting properties
4 | CN(CC(=O)O)C(=S)c1cccc2ccc(Br)cc12 [R^1=CH3, R^2=H, R^3=7-Br, n=O, N-[(7-bromo-1-naphthalenyl)thioxomethyl]-N-methylglycine] | 86 | 58 | 15 | –
5 | O=C(O)CN1C(=O)c2cccc3cccc(c23)C1=O [1,3-Dioxo-1H-benz[de]isoquinoline-2(3H)-acetic acid] | – | – | – | effective inhibitor of aldose reductase
6 | O=C(O)[C@@H]1CCCN1C(=S)c1cccc2c(Br)cccc12 [R^1 R^2=CH2 CH2 CH2, R^3=5-Br, n=O, N-[(5-bromo-1-naphthalenyl)thioxomethyl]-L-proline] | 56 | 26 | – | –

The next lines start with results.

Row | inhibition at 10 µM (aldose reductase [1]) [%] | inhibition at 1 µM (aldose reductase [1]) [%] | inhibition at 0.1 µM (aldose reductase [1]) [%] | Compound | inhibition of aldose reductase (in words) (aldose reductase [2])
7 | 46 | 7 | – | O=C(O)CN(CC(=O)O)C(=S)c1cccc2c(Br)cccc12 [R^1=CH2 COOH, R^2=H, R^3=5-Br, n=O, N-[(5-bromo-1-naphthalenyl)thioxomethyl]-N-(carboxymethyl)glycine] | –
8 | 90 | 74 | 28 | CN(CC(=O)O)C(=S)c1cc(Br)cc2ccccc12 [R^1=CH3, R^2=H, R^3=3-Br, n=O, N-[(3-Bromo-1-naphthalenyl)thioxomethyl]-N-methylglycine] | –
9 | 86 | 80 | 39 | O=C(O)CN(C(=S)c1cccc2c(Br)cccc12)c1ccc(Cl)cc1 [R^1=4-Cl--C6 H4, R^2=H, R^3=5-Br, n=O, N-[(5-bromo-1-naphthalenyl)thioxomethyl]-N-(4-chlorophenyl)glycine] | –
10 | 91 | 67 | 19 | COc1c(Cl)cc(C(=S)N(C)CC(=O)O)c2cccc(S(=O)(=O)N(C)C)c12 [N-[[3-chloro-4-methoxy-5-(dimethylaminosulfonyl)-1-naphthalenyl]thioxomethyl]-N-methylglycine] | –
11 | 37 | – | – | CN(CCCC(=O)O)C(=S)c1cccc2c(Br)cccc12 [R^1=CH3, R^2=H, R^3=5-Br, n=2, N-[(5-bromo-1-naphthalenyl)thioxomethyl]-N-methyl-4-aminobutanoic acid] | –
12 | 91 | 75 | 18 | CN(CC(=O)O)C(=S)c1cccc2cc(Br)ccc12 [R^1=CH3, R^2=H, R^3=6-Br, n=O, N-[(6-bromo-1-naphthalenyl)thioxomethyl)-N-methylglycine] | –
